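Where inhibition never reached the appropriate level, the endpoint shown equals the highest concentration tested. Otherwise, values were interpolated linearly from a five-concentration, 48-hour dose response in 96-well plates. TGI: total growth inhibition.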
Key:
Assay in all cases: NCI tumour cell line growth inhibition, 48 h
PC-3 prostate = tested on: PC-3 prostate
NCI-H226 lung = tested on: NCI-H226 lung
RXF 393 renal = tested on: RXF 393 renal
LOX IMVI melanoma = tested on: LOX IMVI melanoma
KM12 colon = tested on: KM12 colon
UACC-62 melanoma = tested on: UACC-62 melanoma
UO-31 renal = tested on: UO-31 renal
K-562 leukemia = tested on: K-562 leukemia
HCC-2998 colon = tested on: HCC-2998 colon
SK-MEL-5 melanoma = tested on: SK-MEL-5 melanoma
SN12C renal = tested on: SN12C renal
MALME-3M melanoma = tested on: MALME-3M melanoma
SF-268 CNS = tested on: SF-268 CNS
HCT-116 colon = tested on: HCT-116 colon
HCT-15 colon = tested on: HCT-15 colon
M14 melanoma = tested on: M14 melanoma
NCI-H23 lung = tested on: NCI-H23 lung
HOP-62 NSCLC = tested on: HOP-62 NSCLC
NCI-H522 lung = tested on: NCI-H522 lung
786-0 renal = tested on: 786-0 renal
SK-MEL-2 melanoma = tested on: SK-MEL-2 melanoma
SK-OV-3 ovarian = tested on: SK-OV-3 ovarian
A498 renal = tested on: A498 renal
OVCAR-4 ovarian = tested on: OVCAR-4 ovarian
HT29 colon = tested on: HT29 colon
MCF7 breast = tested on: MCF7 breast
OVCAR-5 ovarian = tested on: OVCAR-5 ovarian
OVCAR-3 ovarian = tested on: OVCAR-3 ovarian
SF-295 CNS = tested on: SF-295 CNS
IGROV1 ovarian = tested on: IGROV1 ovarian
U251 CNS = tested on: U251 CNS
SNB-19 CNS = tested on: SNB-19 CNS
MDA-N = tested on: MDA-N
SW-620 colon = tested on: SW-620 colon
UACC-257 melanoma = tested on: UACC-257 melanoma
COLO 205 colon = tested on: COLO 205 colon
SF-539 CNS = tested on: SF-539 CNS
T-47D breast = tested on: T-47D breast
TK-10 renal = tested on: TK-10 renal
ACHN renal = tested on: ACHN renal
MDA-MB-435 = tested on: MDA-MB-435
NCI/ADR-RES ovarian = tested on: NCI/ADR-RES ovarian
A549 NSCLC = tested on: A549 NSCLC
NCI-H460 lung = tested on: NCI-H460 lung
MDA-MB-231 breast = tested on: MDA-MB-231 breast
RPMI-8226 leukemia = tested on: RPMI-8226 leukemia
CCRF-CEM leukemia = tested on: CCRF-CEM leukemia
CAKI-1 renal = tested on: CAKI-1 renal
HOP-92 NSCLC = tested on: HOP-92 NSCLC
OVCAR-8 ovarian = tested on: OVCAR-8 ovarian
HL-60(TB) leukemia = tested on: HL-60(TB) leukemia
SK-MEL-28 melanoma = tested on: SK-MEL-28 melanoma
DU-145 prostate = tested on: DU-145 prostate
SNB-75 CNS = tested on: SNB-75 CNS
HS 578T breast = tested on: HS 578T breast
BT-549 breast = tested on: BT-549 breast
MOLT-4 leukemia = tested on: MOLT-4 leukemia
EKVX NSCLC = tested on: EKVX NSCLC

SMILES: O=C(NCCN(CCNC(=O)c1cccc(=O)n1O)CCN(CCNC(=O)c1cccc(=O)n1O)CCNC(=O)c1cccc(=O)n1O)c1cccc(=O)n1O
- TGI (PC-3 prostate): > 100 µM
- TGI (NCI-H226 lung): > 100 µM
- TGI (RXF 393 renal): > 100 µM
- TGI (LOX IMVI melanoma): > 100 µM
- TGI (KM12 colon): > 100 µM
- TGI (UACC-62 melanoma): > 100 µM
- TGI (UO-31 renal): > 100 µM
- TGI (K-562 leukemia): > 100 µM
- TGI (HCC-2998 colon): > 100 µM
- TGI (SK-MEL-5 melanoma): > 100 µM
- TGI (SN12C renal): > 100 µM
- TGI (MALME-3M melanoma): > 100 µM
- TGI (SF-268 CNS): > 100 µM
- TGI (HCT-116 colon): > 100 µM
- TGI (HCT-15 colon): > 100 µM
- TGI (M14 melanoma): > 100 µM
- TGI (NCI-H23 lung): > 100 µM
- TGI (HOP-62 NSCLC): > 100 µM
- TGI (NCI-H522 lung): > 100 µM
- TGI (786-0 renal): > 100 µM
- TGI (SK-MEL-2 melanoma): > 100 µM
- TGI (SK-OV-3 ovarian): > 100 µM
- TGI (A498 renal): > 100 µM
- TGI (OVCAR-4 ovarian): > 100 µM
- TGI (HT29 colon): > 100 µM
- TGI (MCF7 breast): > 100 µM
- TGI (OVCAR-5 ovarian): > 100 µM
- TGI (OVCAR-3 ovarian): > 100 µM
- TGI (SF-295 CNS): > 100 µM
- TGI (IGROV1 ovarian): > 100 µM
- TGI (U251 CNS): > 100 µM
- TGI (SNB-19 CNS): > 100 µM
- TGI (MDA-N): > 100 µM
- TGI (SW-620 colon): > 100 µM
- TGI (UACC-257 melanoma): > 100 µM
- TGI (COLO 205 colon): > 100 µM
- TGI (SF-539 CNS): > 100 µM
- TGI (T-47D breast): > 100 µM
- TGI (TK-10 renal): > 100 µM
- TGI (ACHN renal): > 100 µM
- TGI (MDA-MB-435): > 100 µM
- TGI (NCI/ADR-RES ovarian): > 100 µM
- TGI (A549 NSCLC): > 100 µM
- TGI (NCI-H460 lung): > 100 µM
- TGI (MDA-MB-231 breast): > 100 µM
- TGI (RPMI-8226 leukemia): > 100 µM
- TGI (CCRF-CEM leukemia): > 100 µM
- TGI (CAKI-1 renal): > 100 µM
- TGI (HOP-92 NSCLC): > 100 µM
- TGI (OVCAR-8 ovarian): > 100 µM
- TGI (HL-60(TB) leukemia): > 100 µM
- TGI (SK-MEL-28 melanoma): > 100 µM
- TGI (DU-145 prostate): > 100 µM
- TGI (SNB-75 CNS): > 100 µM
- TGI (HS 578T breast): > 100 µM
- TGI (BT-549 breast): > 100 µM

SMILES: CC(C)/C(Cl)=N/OC(=O)Nc1ccc(F)c(Cl)c1
- TGI (PC-3 prostate): 29.8 µM
- TGI (NCI-H226 lung): 30.9 µM
- TGI (RXF 393 renal): 25.6 µM
- TGI (LOX IMVI melanoma): 3.59 µM
- TGI (KM12 colon): 30.6 µM
- TGI (UACC-62 melanoma): 27.3 µM
- TGI (UO-31 renal): 30.4 µM
- TGI (K-562 leukemia): > 100 µM
- TGI (HCC-2998 colon): 28.1 µM
- TGI (SK-MEL-5 melanoma): 28.2 µM
- TGI (SN12C renal): 3.21 µM
- TGI (MALME-3M melanoma): 4.08 µM
- TGI (SF-268 CNS): 40.3 µM
- TGI (HCT-116 colon): 6.77 µM
- TGI (HCT-15 colon): 4.16 µM
- TGI (M14 melanoma): 10.6 µM
- TGI (NCI-H23 lung): 27.8 µM
- TGI (HOP-62 NSCLC): 32.8 µM
- TGI (NCI-H522 lung): 3.01 µM
- TGI (786-0 renal): 2.96 µM
- TGI (SK-MEL-2 melanoma): 34.2 µM
- TGI (SK-OV-3 ovarian): 30 µM
- TGI (A498 renal): 33.3 µM
- TGI (OVCAR-4 ovarian): 24.3 µM
- TGI (HT29 colon): 13.3 µM
- TGI (MCF7 breast): 22.4 µM
- TGI (OVCAR-5 ovarian): 34.6 µM
- TGI (OVCAR-3 ovarian): 9.11 µM
- TGI (SF-295 CNS): 29.8 µM
- TGI (IGROV1 ovarian): 28.4 µM
- TGI (MOLT-4 leukemia): 4.72 µM
- TGI (U251 CNS): 40.3 µM
- TGI (SNB-19 CNS): 45.8 µM
- TGI (MDA-N): 14.8 µM
- TGI (SW-620 colon): 3.47 µM
- TGI (UACC-257 melanoma): 26.5 µM
- TGI (COLO 205 colon): 3.25 µM
- TGI (EKVX NSCLC): 5.17 µM
- TGI (SF-539 CNS): 20.9 µM
- TGI (T-47D breast): 12.7 µM
- TGI (TK-10 renal): 31.9 µM
- TGI (ACHN renal): 4.13 µM
- TGI (MDA-MB-435): 23.4 µM
- TGI (NCI/ADR-RES ovarian): 29.3 µM
- TGI (A549 NSCLC): 37.4 µM
- TGI (NCI-H460 lung): 35.4 µM
- TGI (MDA-MB-231 breast): 30.7 µM
- TGI (RPMI-8226 leukemia): 2.97 µM
- TGI (CCRF-CEM leukemia): > 20.2 µM
- TGI (CAKI-1 renal): 3.06 µM
- TGI (HOP-92 NSCLC): 3 µM
- TGI (OVCAR-8 ovarian): 32.4 µM
- TGI (HL-60(TB) leukemia): 5.23 µM
- TGI (SK-MEL-28 melanoma): 5.46 µM
- TGI (DU-145 prostate): 30.5 µM
- TGI (SNB-75 CNS): 32 µM
- TGI (HS 578T breast): 53.3 µM
- TGI (BT-549 breast): 9.98 µM

From PubChem BioAssay (NCI)
